Reference: paper PMC9315496, “A Comparison of the Photophysical, Electrochemical and Cytotoxic Properties of meso-(2-, 3- and 4-Pyridyl)-BODIPYs and Their Derivatives” (Sensors (Basel, Switzerland), 2022)
Where two headings read alike, the source gives them in different places. Marks after values point to notes of the source that are not given here.

Key:
[1] = UV-vis absorption and emission spectroscopy, relative fluorescence quantum yields; assay type: physicochemical; details: for bathochromic shift of maximum absorption wavelength upon methylation: acetonitrile, experimental; for λabs / λem: room temperature; for Φf (relative fluorescence quantum yield): standard Ru(bpy)Cl2.6H2O (Φf = 0.028) in H2O, λexc = 436 nm
Experimental: UV−vis absorption spectra were collected on a Varian Cary 50 Bio spectrophotometer. Emission spectra were obtained on a PerkinElmer LS55 spectrophotometer, at room temperature. Spectrophotometric grade solvents and quartz cuvettes (1 cm path length) were used. Relative fluorescence quantum yields (Φf) were calculated using rhodamine 6G (Φf = 0.86 in methanol) as reference for the neutral BODIPYs and Ru(bpy)Cl2.6H2O (Φf = 0.028 in water) as the standard for the cationic BODIPYs using the following equation: Φx = Φst × Gradx/Gradst × (ηx/ηst)^2, where the ΦX and ΦST are the quantum yields of the sample and standard, GradX and GradST are the gradients from the plot of integrated fluorescence intensity vs. absorbance, and η represents the refractive index of the solvent (x is for the sample and st for the standard).

[2] = Cyclic voltammetry; assay type: physicochemical
Text: Cyclic voltammograms were collected on a Biologic SP-300 potentiostat using a three-electrode setup with a platinum working electrode (2 mm diameter, CH Instruments), platinum counter electrode (2 mm diameter, CH Instruments), and a silver wire pseudo reference-electrode stored in 0.25 M NBu4PF6 in anhydrous acetonitrile and separated from the electrochemical cell by a glass frit. The electrochemical cell was composed of a borosilicate glass scintillation vial with a custom-machined cap. Working electrodes were polished and then pre-treated by cycling between upper and lower boundaries of the electrochemical window for the experiment in a solution containing only the electrolyte. Measurements were taken in a solution of 0.25 M recrystallized NBu4PF6 in dried and degassed anhydrous acetonitrile. BODIPYs were added to 5 mL of electrolyte solution to give a concentration of 1 mM. Each solution also contained 1 mM ferrocene as an internal reference. Solutions were sparged with N2 before each measurement.

[3] = tested on: HEp2 cells; experiment: Dark cytotoxicity, Cell Titer Blue; assay type: cell-based; details: Homo sapiens, HEp-2, 24 h incubation, read-out: Dark Toxicity (IC50)
Experimental: (§1) Human carcinoma HEp2 cells were obtained from ATCC and maintained in a 75 cm^2 flask (Chemglass) with 1× MEM (Eagle’s minimal essential medium) containing 10% FBS (fetal bovine serum) and 1% antibiotic (penicillin–streptomycin) in a humidified, 5% CO2 incubator at 37 °C. Stock solutions with a concentration of 32 mM in DMSO were prepared for each BODIPY. The stock solution was diluted to the final working concentrations with culture medium. The HEp2 cells were plated at 7500–10,000 cells per well in a Costar 96-well plate and allowed to grow for 24 h. The BODIPY stock solution was diluted to a 200 μM working solution and two-fold serial dilutions were prepared with final concentrations of 200, 100, 50, 25, 12.5, 6.25, and 0 μM. Each BODIPY was incubated for 24 h at 37 °C under 5% CO2. For the dark cytotoxicity experiments, after incubation, excess BODIPY was removed by washing the cells three times with 1× PBS (phosphate-buffered saline) and replacing with media containing 20% Cell Titer Blue (Promega, Madison, WI, USA). The cells were then incubated for additional 24 h at 37 °C under 5% CO2 and the cell toxicity was determined by fluorescence intensity at ex 570/em 615 nm using a FluoStar Optima microplate reader (BMG Labtech, Cary, NC, USA).

[4] = tested on: HEp2 cells; experiment: Phototoxicity (1.5 J/cm^2), Cell Titer Blue; assay type: cell-based; details: Homo sapiens, HEp-2, light or radiation study, light dose 1.5 J/cm^2
Experimental: as §1
For the phototoxicity experiments, after incubation the cells were exposed to a light dose of ~1.5 J/cm^2 generated using a 600 W Quartz Tungsten Halogen lamp (Newport Corporation, Irvine, CA, USA). The cells were exposed for 20 min while the 96-well plate rested on an EchoTherm chilling plate (Torrey Pines Scientific, Carlsbad, CA, USA) set to 5 °C. Following light exposure, the loading media was removed and media containing 20% Cell Titer Blue was added. After incubation for 24 h at 37 °C under 5% CO2, the cell viability was determined as described above.

[5] = cited from earlier work
[6] = vs. Fc^+/Fc, 100 mV/s, acetonitrile, 0.25 M NBu4PF6
[7] = vs. Fc^+/Fc, 100 mV/s, acetonitrile, 0.25 M NBu4PF6, PF6^− counterion

bathochromic shift of maximum absorption wavelength upon methylation [1] [nm]	E1/2ox [2, 7]	Stokes Shift ([1]; CH3CN) [nm]	ε (molar extinction coefficient) ([1]; CH3CN)	λabs ([1]; CH3CN) [nm]	λem ([1]; CH3CN) [nm]	Φf (relative fluorescence quantum yield) ([1]; CH3CN)	Stokes Shift ([1]; H2O) [nm]	ε (molar extinction coefficient) ([1]; H2O)	λabs ([1]; H2O) [nm]	λem ([1]; H2O) [nm]	Φf (relative fluorescence quantum yield) ([1]; H2O)	E1/2red, first one-electron reduction [2, 6] [V]	E1/2red, second one-electron reduction [2, 6] [V]	SMILES	IC50 [3] [µM]	IC50 [4] [µM]	also measured
8	+0.89 V	–	–	–	–	–	–	–	–	–	–	–	–	CC1=CC(C)=[N+]2C1=C(c1cc[n+](C)cc1)c1c(C)cc(C)n1[B-]2(F)F [4catPy]	> 200	> 100	E1/2red, two-electron reduction to doubly reduced state [2, 6]: −1.06 ^e V; Stokes Shift ([5]; CH3CN): 87 nm; Φf (fluorescence quantum yield) ([5]; CH3CN): 0.019; ε (molar extinction coefficient) ([5]; CH3CN): 26,000 M^−1 cm ^−1; λabs ([5]; CH3CN): 509 nm; λem ([5]; CH3CN): 596 nm; Stokes Shift ([5]; H2O): 91 nm; Φf (fluorescence quantum yield) ([5]; H2O): 0.004; ε (molar extinction coefficient) ([5]; H2O): 31,600 M^−1 cm ^−1; λabs ([5]; H2O): 509 nm; λem ([5]; H2O): 600 nm
–	–	17	19,420 M^−1 cm ^−1	530	547	0.17 ^b	22	21,000 M^−1 cm ^−1	555	577	0.24	−0.87	−1.16	CC1=C(Cl)C(C)=[N+]2C1=C(c1cccc[n+]1C)c1c(C)c(Cl)c(C)n1[B-]2(F)F [2catPyCl2, 2,6-Dichloro-8-(N-methyl-2-pyridyl)-1,3,5,7-tetramethyl-BODIPY]	80	80	Φf (relative fluorescence quantum yield) ([1]; H2O, listed as 2catPyCl2 (I^−)): 0.24 ^b; fluorescence enhancement relative to the non-chlorinated pyridinium BODIPY ([1]; water): over 200 fold; first reduction wave shift positive compared with the unchlorinated BODIPY [2]: 220 mV; second reduction wave shift positive compared with the unchlorinated BODIPY [2]: 130 mV; anodic peak shift positive compared with the corresponding unchlorinated BODIPY ([2]; 100 mV/s): 70 mV; E1/2ox ([2]; vs. Fc^+/Fc, value at 10 V/s, acetonitrile, 0.25 M NBu4PF6): +1.10 ^b V
8	+0.89 V	22	65,460 M^−1 cm ^−1	510	532	0.006	20	37,320 M^−1 cm ^−1	510	530	0.005 ^b	−1.26	−1.54	CC1=CC(C)=[N+]2C1=C(c1ccc[n+](C)c1)c1c(C)cc(C)n1[B-]2(F)F [3catPy, 1,3,5,7-Tetramethyl-8-(N-methyl-3-pyridyl)-BODIPY Iodide]	> 200	> 100	Φf (relative fluorescence quantum yield) ([1]; CH3CN, listed as 3catPy (I^−)): 0.006 ^b; first reduction, more negative than the two-electron reduction in 4catPy [2]: 200 mV; second reduction, more negative than the two-electron reduction in 4catPy [2]: 480 mV
